Biological target: BRD4 (BDI_K57-E168) (Homo sapiens, UniProt O60885)
Assay: TR-FRET bromodomain binding assay, BRD4 first bromodomain (BDI)
Description: A time-resolved fluorescence resonance energy transfer (TR-FRET) assay was used to determine the affinities of compounds of the Examples listed in Table 1 for each bromodomain of BRD4. […] An Alexa647-labeled BET-inhibitor was used as the fluorescent probe in the assay.
(§1) Compound dilution series were prepared in DMSO via an approximately 3-fold serial dilution. Compound dilutions were added directly into white, low-volume assay plates (Perkin Elmer Proxiplate 384 Plus #6008280) using a Labcyte Echo in conjunction with Labcyte Access and Thermo Multidrop CombinL robotics. Compounds were then suspended in eight microliters (μL) of assay buffer (20 mM Sodium Phosphate, pH 6.0, 50 mM NaCl, 1 mM Ethylenediaminetetraacetic acid disodium salt dihydrate, 0.01% Triton X-100, 1 mM DL-Dithiothreitol) containing His-tagged bromodomain, Europium-conjugated anti-His antibody (Invitrogen PV5596) and Alexa-647-conjugated probe.
After a one-hour equilibration at room temperature, TR-FRET ratios were determined using an Envision multilabel plate reader (Ex 340, Em 495/520).
TR-FRET data were normalized to the means of 24 no-compound controls (“high”) and 8 controls containing 1 μM un-labeled probe (“low”). Percent inhibition was plotted as a function of compound concentration and the data were fit with the 4 parameter logistic equation to obtain IC50s. Inhibition constants (Ki) were calculated from the IC50s, probe Kd and probe concentration.
Compound dilution series for Compounds A-E were prepared in DMSO via an approximately 3-fold serial dilution from 0.47 mM to 7.8 nM.
as §1, with “Compound” for “Compound dilution series were prepared in DMSO via an approximately 3-fold serial dilution. Compound”
The final concentration of 1× assay mixture contained 2% DMSO, 8 nM His-tagged bromodomain, 1 nM Europium-conjugated anti-His-tag antibody and 100 nM or 30 nM probe (for BDI or BDII, respectively) and compound concentration in the range of […]-150 μM.
TR-FRET data were normalized to the means of 24 no-compound controls (“high”) and 8 controls containing 1 μM un-labeled probe (“low”). Percent inhibition was plotted as a function of compound concentration and the data were fit with the 4 parameter logistic equation to obtain IC50s. Inhibition constants (Ki) were calculated from the IC50s, probe Kd and probe concentration. Typical Z′ values were between 0.65 and 0.75. The minimum significant ratio was determined to evaluate assay reproducibility (Eastwood et al., (2006) J Biomol Screen, 11: 253-261). The MSR was determined to be 2.03 for BDI and 1.93 for BDII, and a moving MSR (last six run MSR overtime) for both BDI and BDII was typically <3.

Row | Ki [nM] | SMILES
1 | 1160 | CCS(=O)(=O)c1ccc(Oc2c(C)cccc2C)c(-c2cn(C)c(=O)cc2O[C@H]2CC[C@H](NC(C)=O)CC2)c1 [Example 1, N-[trans-4-({5-[2-(2,6-dimethylphenoxy)-5-(ethanesulfonyl)phenyl]-1-methyl-2-oxo-1,2-dihydropyridin-4-yl}oxy)cyclohexyl]acetamide]
2 | 2800 | CCS(=O)(=O)c1ccc(Oc2c(C)cccc2C)c(-c2cn(C)c(=O)cc2O[C@H]2CC[C@@H](NC(C)=O)CC2)c1 [Example 2, N-[cis-4-({5-[2-(2,6-dimethylphenoxy)-5-(ethanesulfonyl)phenyl]-1-methyl-2-oxo-1,2-dihydropyridin-4-yl}oxy)cyclohexyl]acetamide]
3 | 1050 | CCS(=O)(=O)c1ccc(Oc2c(C)cccc2C)c(-c2cn(C)c(=O)cc2O[C@H]2CC[C@H](NC(=O)OC)CC2)c1 [Example 3, methyl [trans-4-({5-[2-(2,6-dimethylphenoxy)-5-(ethanesulfonyl)phenyl]-1-methyl-2-oxo-1,2-dihydropyridin-4-yl}oxy)cyclohexyl]carbamate]
4 | 1050 | CCS(=O)(=O)c1ccc(Oc2c(C)cccc2C)c(-c2cn(C)c(=O)cc2O[C@H]2CC[C@H](NS(C)(=O)=O)CC2)c1 [Example 4, N-[trans-4-({5-[2-(2,6-dimethylphenoxy)-5-(ethanesulfonyl)phenyl]-1-methyl-2-oxo-1,2-dihydropyridin-4-yl}oxy)cyclohexyl]methanesulfonamide]
5 | 1280 | CCS(=O)(=O)c1ccc(Oc2c(C)cccc2C)c(-c2cn(C)c(=O)cc2O[C@H]2CC[C@H](NC(=O)OC(C)(C)C)CC2)c1 [Example 5, tert-butyl [trans-4-({5-[2-(2,6-dimethylphenoxy)-5-(ethanesulfonyl)phenyl]-1-methyl-2-oxo-1,2-dihydropyridin-4-yl}oxy)cyclohexyl]carbamate]
6 | 823 | CCS(=O)(=O)c1ccc(Oc2c(C)cccc2C)c(-c2cn(C)c(=O)cc2O[C@H]2CC[C@H](NC(=O)C(F)(F)F)CC2)c1 [Example 6, N-[trans-4-({5-[2-(2,6-dimethylphenoxy)-5-(ethanesulfonyl)phenyl]-1-methyl-2-oxo-1,2-dihydropyridin-4-yl}oxy)cyclohexyl]-2,2,2-trifluoroacetamide]
7 | 489 | CCC(=O)N[C@H]1CC[C@H](Oc2cc(=O)n(C)cc2-c2cc(S(=O)(=O)CC)ccc2Oc2c(C)cccc2C)CC1 [Example 7, N-[trans-4-({5-[2-(2,6-dimethylphenoxy)-5-(ethanesulfonyl)phenyl]-1-methyl-2-oxo-1,2-dihydropyridin-4-yl}oxy)cyclohexyl]propanamide]
8 | 627 | CCS(=O)(=O)c1ccc(Oc2c(C)cccc2C)c(-c2cn(C)c(=O)cc2O[C@H]2CC[C@H](NC(=O)C(C)(C)C)CC2)c1 [Example 8, N-[trans-4-({5-[2-(2,6-dimethylphenoxy)-5-(ethanesulfonyl)phenyl]-1-methyl-2-oxo-1,2-dihydropyridin-4-yl}oxy)cyclohexyl]-2,2-dimethylpropanamide]
9 | 474 | CCS(=O)(=O)c1ccc(Oc2c(C)cccc2C)c(-c2cn(C)c(=O)cc2O[C@H]2CC[C@H](NC(=O)COC)CC2)c1 [Example 9, N-[trans-4-({5-[2-(2,6-dimethylphenoxy)-5-(ethanesulfonyl)phenyl]-1-methyl-2-oxo-1,2-dihydropyridin-4-yl}oxy)cyclohexyl]-2-methoxyacetamide]
10 | 524 | CCS(=O)(=O)c1ccc(Oc2c(C)cccc2C)c(-c2cn(C)c(=O)cc2O[C@H]2CC[C@H](NC(=O)C3(C)CC3)CC2)c1 [Example 10, N-[trans-4-({5-[2-(2,6-dimethylphenoxy)-5-(ethanesulfonyl)phenyl]-1-methyl-2-oxo-1,2-dihydropyridin-4-yl}oxy)cyclohexyl]-1-methylcyclopropane-1-carboxamide]
11 | 773 | CCS(=O)(=O)c1ccc(Oc2c(C)cccc2C)c(-c2cn(C)c(=O)cc2O[C@H]2CC[C@H](NC(=O)C3CC3)CC2)c1 [Example 11, N-[trans-4-({5-[2-(2,6-dimethylphenoxy)-5-(ethanesulfonyl)phenyl]-1-methyl-2-oxo-1,2-dihydropyridin-4-yl}oxy)cyclohexyl]cyclopropanecarboxamide]
12 | 301 | CCS(=O)(=O)c1ccc(Oc2c(C)cccc2C)c(-c2cn(C)c(=O)cc2O[C@H]2CC[C@H](NC(=O)C3(C)COC3)CC2)c1 [Example 12, N-[trans-4-({5-[2-(2,6-dimethylphenoxy)-5-(ethanesulfonyl)phenyl]-1-methyl-2-oxo-1,2-dihydropyridin-4-yl}oxy)cyclohexyl]-3-methyloxetane-3-carboxamide]
13 | 462 | CCS(=O)(=O)c1ccc(Oc2c(C)cccc2C)c(-c2cn(C)c(=O)cc2O[C@H]2CC[C@H](NC(=O)C3CC(F)(F)C3)CC2)c1 [Example 13, N-[trans-4-({5-[2-(2,6-dimethylphenoxy)-5-(ethanesulfonyl)phenyl]-1-methyl-2-oxo-1,2-dihydropyridin-4-yl}oxy)cyclohexyl]-3,3-difluorocyclobutane-1-carboxamide]
14 | 95.3 | CCS(=O)(=O)Nc1ccc(Oc2c(C)cc(C(C)(C)O)cc2C)c(-c2cn(C)c(=O)cc2O[C@H]2CC[C@H](NC(C)=O)CC2)c1 [Example 14, N-{trans-4-[(5-{5-[(ethanesulfonyl)amino]-2-[4-(2-hydroxypropan-2-yl)-2,6-dimethylphenoxy]phenyl}-1-methyl-2-oxo-1,2-dihydropyridin-4-yl)oxy]cyclohexyl}acetamide]
15 | 102 | CCS(=O)(=O)Nc1ccc(Oc2c(C)cc(C(C)(C)O)cc2C)c(-c2cn(C)c(=O)cc2O[C@H]2CC[C@H](NC(=O)OC)CC2)c1 [Example 15, methyl {trans-4-[(5-{5-[(ethanesulfonyl)amino]-2-[4-(2-hydroxypropan-2-yl)-2,6-dimethylphenoxy]phenyl}-1-methyl-2-oxo-1,2-dihydropyridin-4-yl)oxy]cyclohexyl}carbamate]
16 | 313 | CCS(=O)(=O)Nc1ccc(Oc2c(C)cc(F)cc2C)c(-c2cn(C)c(=O)cc2O[C@H]2CC[C@H](NC(=O)OC)CC2)c1 [Example 16, methyl {trans-4-[(5-{5-[(ethanesulfonyl)amino]-2-(4-fluoro-2,6-dimethylphenoxy)phenyl}-1-methyl-2-oxo-1,2-dihydropyridin-4-yl)oxy]cyclohexyl}carbamate]
17 | 419 | CCS(=O)(=O)Nc1cnc(Oc2c(C)cc(F)cc2C)c(-c2cn(C)c(=O)cc2O[C@H]2CC[C@H](NC(=O)OC)CC2)c1 [Example 17, methyl [trans-4-({5′-[(ethanesulfonyl)amino]-2′-(4-fluoro-2,6-dimethylphenoxy)-1-methyl-6-oxo[1,6-dihydro[3,3′-bipyridine]]-4-yl}oxy)cyclohexyl]carbamate]
18 | 903 | COC(=O)N[C@H]1CC[C@H](Oc2cc(=O)n(C)cc2-c2cc(CS(C)(=O)=O)ccc2Oc2c(C)cc(F)cc2C)CC1 [Example 18, methyl {trans-4-[(5-{2-(4-fluoro-2,6-dimethylphenoxy)-5-[(methanesulfonyl)methyl]phenyl}-1-methyl-2-oxo-1,2-dihydropyridin-4-yl)oxy]cyclohexyl}carbamate]
19 | 615 | CCS(=O)(=O)c1ccc(Oc2c(C)cc(F)cc2C)c(-c2cn(C)c(=O)cc2O[C@H]2CC[C@H](N3CCCC3=O)CC2)c1 [Example 19, 5-[5-(ethanesulfonyl)-2-(4-fluoro-2,6-dimethylphenoxy)phenyl]-1-methyl-4-{[trans-4-(2-oxopyrrolidin-1-yl)cyclohexyl]oxy}pyridin-2(1H)-one]
20 | 461 | CCS(=O)(=O)c1ccc(Oc2c(C)cc(F)cc2C)c(-c2cn(C)c(=O)cc2O[C@H]2CC[C@H](N(C)C(C)=O)CC2)c1 [Example 20, N-[trans-4-({5-[5-(ethanesulfonyl)-2-(4-fluoro-2,6-dimethylphenoxy)phenyl]-1-methyl-2-oxo-1,2-dihydropyridin-4-yl}oxy)cyclohexyl]-N-methylacetamide]
